Test results from patent publication US9198902B2, “1,4-dihydropyridine-3,5-dicarboxylate derivatives and preparation and use thereof” (Xuanzhu Pharma Co., Ltd., priority 2011, dated 2015).

Experiments:
SHRs = assay: In vivo hypotensive activity in SHRs, DSI implant-type remote blood pressure measurement; parameters: species or system rats; details: male SHRs, 10 mg/kg po, monitored 24 hours
Method: The in vivo hypotensive activity assay was conducted according to DSI experimental procedure with reference to page 56 of WO 2009/056934 A1. The agents to be tested, lercanidipine, barnidipine, amlodipine, azelnidipine, efonidipine and manidipine, were accurately weighed. Each agent was dissolved in DMSO. To the resulting solution was added 50% of the corresponding volume of PEG400 so that the final concentration of each agent was 1 mg/ml, and the final concentration of DMSO was 3%. […] Each compound was dissolved in DMSO. […] The compound to be tested, Compound 15, was accurately weighed. This compound was dissolved in DMSO. […] The compound to be tested, Compound 16 (optical activity)+108.34° and Compound 17 (optical activity optical activity)+36.4°, were accurately weighed. […] The test for hypotensive effect: Male SHRs were subjected to an abdominal aorta implantation using an implant, and used in the test after 7-10 days of recovery. The administration was an intragastric administration. One hour before the administration, the measured blood pressure was used as the pre-administration basic blood pressure value. After the administration, SHRs, allowed free access to the diet, were continuously monitored with a DSI implant-type blood pressure remote measurement system for 24 hours.

[1] = system: SHRs (spontaneous hypertensive rats); assay: In vivo hypotensive activity in SHRs, tail-pinch method; details: male SHRs, 10 mg/kg po; for Max ΔMAP (mmHg ± SEM): measured 1-24 h after administration
Method: The in vivo hypotensive activity assay was conducted according to the tail-pinch method with reference to Folia pharmacol. Japon. 97, 115-126 (1991).
The agents to be tested, lercanidipine, barnidipine, amlodipine, azelnidipine, efonidipine and manidipine, were accurately weighed respectively. Each agent was dissolved in DMSO. To the resulting solution was added 50% of the corresponding volume of PEG400 so that the final concentration of each agent was 1 mg/ml, and the final concentration of DMSO was 3%.
The compounds to be tested, Compound 18, Compound 21, Compound 22, Compound 23, and Compound 26, were accurately weighed respectively. Each compound was dissolved in DMSO. To the resulting solution was added 50% of the corresponding volume of PEG400 so that the final concentration of each compound was 1 mg/ml, and the final concentration of DMSO was 3%.
The compounds to be tested, Compound 19 and Compound 20, were accurately weighed respectively. Each compound was suspended in 0.5% MC so that the final concentration of each compound was 1 mg/ml.
The test for hypotensive effect: Male SHRs (spontaneous hypertensive rats) were randomly allocated into a control group and an administration group. The administration was an intragastric administration. One hour before the administration, the measured blood pressure was used as the pre-administration basic blood pressure value. After the administration, the contractive pressure, the heart rate and the mean arterial pressure of SHRs at six time points, i.e. 1, 2, 4, 6, 8 and 24 hours after the administration, were measured with a Softron BP-98A non-invasive blood pressure instrument respectively.

| Compound | Max ΔMAP (mmHg ± SEM) (SHRs) [mmHg] | ΔMAP > 20 (mmHg) Duration time of action (SHRs) [h] | ΔMAP > 20 (mmHg) Duration time of action [1] [h] | Max ΔMAP (mmHg ± SEM) [1] [mmHg] |
| --- | --- | --- | --- | --- |
| COC(=O)C1=C(C)NC(C)=C(C(=O)OC2(C)CCN(Cc3ccccc3)C2)C1c1cccc([N+](=O)[O-])c1 (stereo not drawn) [Compound 1, 3-(1-benzyl-3-methylpyrrolidin-3-yl) 5-methyl 2,6-dimethyl-4-(3-nitrophenyl)-1,4-dihydropyridine-3,5-dicarboxylate] | 47 ± 7 | 6 | – | – |
| CC1=C(C(=O)OCCN(Cc2ccccc2)c2ccccc2)C(c2cccc([N+](=O)[O-])c2)C(P2(=O)OCC(C)(C)CO2)=C(C)N1 (stereo not drawn) [efonidipine, reference compound] | – | – | 10 | 69 ± 5 |
| COC(=O)C1=C(C)NC(C)=C(C(=O)OCCN2CCN(C(c3ccccc3)c3ccccc3)CC2)C1c1cccc([N+](=O)[O-])c1 (stereo not drawn) [manidipine, reference compound] | – | – | 23 | 74 ± 5 |
| COC(=O)C1=C(C)NC(C)=C(C(=O)OC2(C)CCN(C(c3ccccc3)c3ccccc3)C2)[C@H]1c1cccc([N+](=O)[O-])c1 (stereo partly drawn) [Compound 26, (4S)-3-[1-diphenylmethyl-3-methylpyrrolidin-3-yl]5-methyl 2,6-dimethyl-4-(3-nitrophenyl)-1,4-dihydropyridine-3,5-dicarboxylate] | – | – | 24 | 55 ± 13 |
| COC(=O)C1=C(C)NC(C)=C(C(=O)OC2(C)CCN(Cc3cc(F)cc(F)c3)C2)[C@H]1c1cccc([N+](=O)[O-])c1 (stereo partly drawn) [Compound 23, (4S)-3-[1-(3,5-difluorobenzyl)-3-methylpyrrolidin-3-yl]5-methyl 2,6-dimethyl-4-(3-nitrophenyl)-1,4-dihydropyridine-3,5-dicarboxylate] | – | – | 24 | 60 ± 12 |
| COC(=O)C1=C(C)NC(C)=C(C(=O)OC2(C)CCN(CCCc3ccccc3)C2)[C@H]1c1cccc([N+](=O)[O-])c1 (stereo partly drawn) [Compound 21, (4S)-3-[3-methyl-1-(3-phenylpropyl)pyrrolidin-3-yl] 5-methyl 2,6-dimethyl-4-(3-nitrophenyl)-1,4-dihydropyridine-3,5-dicarboxylate] | – | – | 24 | 28 ± 12 |
| COC(=O)C1=C(C)NC(C)=C(C(=O)OC2(C)CCN(CC(c3ccccc3)c3ccccc3)C2)[C@H]1c1cccc([N+](=O)[O-])c1 (stereo partly drawn) [Compound 18, (4S)-3-[1-(2,2-diphenylethyl)-3-methylpyrrolidin-3-yl] 5-methyl 2,6-dimethyl-4-(3-nitrophenyl)-1,4-dihydropyridine-3,5-dicarboxylate] | – | – | 24 | 69 ± 4 |
| COC(=O)C1=C(C)NC(C)=C(C(=O)OC2(C)CCN(CCC(c3ccccc3)c3ccccc3)C2)C1c1cccc([N+](=O)[O-])c1 (stereo not drawn) [Compound 2, 3-[1-(3,3-diphenylpropyl)-3-methylpyrrolidin-3-yl] 5-methyl 2,6-dimethyl-4-(3-nitrophenyl)-1,4-dihydropyridine-3,5-dicarboxylate] | 53 ± 7 | 16 | – | – |
| COC(=O)C1=C(C)NC(C)=C(C(=O)OC2(C)CCN(CCc3ccccc3)C2)[C@H]1c1cccc([N+](=O)[O-])c1 (stereo partly drawn) [Compound 22, (4S)-3-(3-methyl-1-phenylethylpyrrolidin-3-yl) 5-methyl 2,6-dimethyl-4-(3-nitrophenyl)-1,4-dihydropyridine-3,5-dicarboxylate] | – | – | 24 | 43 ± 7 |
